# Reference: patent US20220169639A1 (priority 2018, published 2022)
# Tests used:
# [1] = system: HBeAg (surrogate marker for cccDNA) in HepDES19 cells; assay: Engineered HepDES19 primary screen assay (HBeAg ELISA); format: cell-based, HBV; conditions: Hepatitis B virus, 120 h, HBeAg in culture supernatant, 5 days incubation, read-out: IC50 (HepDES19 primary screen assay, inhibition of extracellular HBeAg level)
# Summary of the method: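 HepDES19 cells pre-induced by Tet withdrawal for 8 days, frozen, then seeded and dosed after 24 h with half-log compound dilutions (1% DMSO final). After 5 days at 37 °C, HBeAg measured by ELISA and viability by CCK-8; IC50 from 4-parameter logistic fit.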
# [2] = system: HBV (HBsAg) in HBV-infected PHH; assay: Cryopreserved primary human hepatocytes (PHH) HBV infection assay, extracellular HBsAg (CLIA); format: cell-based; conditions: Hepatitis B virus, Hepatocyte, 216 h, read-out: HBsAg IC50
# Description: This assay is used to confirm the anti-HBV effect of the compounds in HBV PHH infection assay. Cryopreserved PHH (BioreclamationIVT, Lot YJM) was thawed at 37° C. and gently transferred into pre-warmed InVitroGRO HT medium (BioreclamationIVT, Cat. S03317). The mixture was centrifuged at 70 relative centrifugal force (RCF) for 3 minutes at RT, and the supernatant was discarded. Pre-warmed InVitroGRO CP medium (BioreclamationIVT, Cat #S03316) was added to the cell pellet to gently re-suspend cells. The cells were seeded at the density of 5.8×10^4 cells per well to collagen I coated 96-well plate (Gibco, Cat. A1142803) with the InVitroGRO CP medium. All plates were incubated at 37° C. with 5% CO2 and 85% humidity.
# At 20 hours after plating, the medium was changed to PHH culture medium (Dulbecco's Modified Eagle Medium (DMEM)/F12 (1:1) (Gibco, Cat. 11320-033), 10% fetal bovine serum (Gibco Cat. 10099141), 100 U/mL penicillin, 100 μg/mL streptomycin (Gibco, Cat. 151401-122), 5 ng/mL human epidermal growth factor (Invitrogen Cat. PHG0311L), 20 ng/mL dexamethasone (Sigma, Cat. D4902) and 250 ng/mL human recombinant insulin (Gibco, Cat. 12585-014)). And the cells were incubated at 37° C. with 5% CO2 and 85% humidity for 4 hours. The medium was then changed to pre-warmed PHH culture medium containing 4% polyethylene glycol (PEG) MW8000 (Sigma, Cat. P1458-50ML) and 1% DMSO (Sigma, Cat. D2650). 5.8×10^6 genomic equivalents of HBV were added into the medium.
# At 24 hours post-infection, the cells were gently washed with PBS and refreshed with PHH culture medium supplemented with 1% DMSO, and 0.25 mg/mL Matrix gel (Corning, Cat. 356237) at 200 μL per well. All plates were immediately placed in at 37° C. CO2 incubator. 24 hours later, serial dilutions of compounds made with DMSO were further diluted with the same culture medium (PHH culture medium supplemented with 1% DMSO and 0.25 mg/mL Matrix gel as described above) before they were added to the cells to reach desired final compound concentrations and 1% DMSO concentration. The medium containing the compounds were refreshed every three days.
# At 9 days post-compound treatment, extracellular HBsAg level were measured with Chemiluminescence Immuno Assay (CLIA) kit (Autobio, HBsAg Quantitative CLIA). Extracellular HBV DNA was extracted by MagNA Pure 96 system (Roche) and then determined
# HBsAg IC50 and HBV DNA IC50 values were derived from the dose-response curve using 4 parameter logistic curve fit method. The compounds of formula (I) have HBsAg IC50<20 μM, particularly <1 μM; and HBV DNA IC50<50 μM. Results of Cryopreserved PHH assay are given in TableBIO2.
SMILES,IC50 [1] [µM],IC50 [2] [µM]
"O=C(O)C1CN(CCOCCOc2cc(Br)ccc2-c2cc(=O)c3cccc(Cl)c3o2)CCO1 (stereo not drawn) [Example 049, 4-[2-[2-[5-bromo-2-(8-chloro-4-oxo-chromen-2-yl)phenoxy]ethoxy]ethyl]morpholine-2-carboxylic acid]",2.81,7.81
"NC(=O)C(=O)NCCOc1cc(C(F)(F)F)ccc1-c1cc(=O)c2cccc(Cl)c2o1 [Example 146, N′-[2-[2-(8-chloro-4-oxo-chromen-2-yl)-5-(trifluoromethyl)phenoxy]ethyl]oxamide]",0.33,7.08
"O=C(O)C1CCN(CCOc2cc(Br)ccc2-c2cc(=O)c3cccc(Cl)c3o2)CC1 [Example 022, 1-[2-[5-bromo-2-(8-chloro-4-oxo-chromen-2-yl)phenoxy]ethyl]piperidine-4-carboxylic acid]",1.31,6.8
CS(=O)(=O)C1CCN(CCOc2cc(Br)ccc2-c2cc(=O)c3cccc(Cl)c3o2)C1 (stereo not drawn) [Example 084],0.59,3.48
"O=C(O)C1CCN(CCCOc2cc(Br)ccc2-c2cc(=O)c3cccc(Cl)c3o2)C1 (stereo not drawn) [Example 001, 1-[3-[5-bromo-2-(8-chloro-4-oxo-chromen-2-yl)phenoxy]propyl]pyrrolidine-3-carboxylic acid]",0.35,5.43
"O=C(O)C1CC2CCC(C1)N2CCOc1cc(Br)ccc1-c1cc(=O)c2cccc(Cl)c2o1 (stereo not drawn) [Example 025, 8-[2-[5-bromo-2-(8-chloro-4-oxo-chromen-2-yl)phenoxy]ethyl]-8-azabicyclo[3.2.1]octane-3-carboxylic acid]",0.79,7.63
CC(=O)N1CCN(CCOc2cc(Br)ccc2-c2cc(=O)c3cccc(Cl)c3o2)CC1 [Example 082],0.24,7.56
"O=C(O)[C@@H]1CCN(CC(O)COc2cc(Br)ccc2-c2cc(=O)c3cccc(Cl)c3o2)C1 (stereo partly drawn) [Example 165, (3R)-1-[3-[5-bromo-2-(8-chloro-4-oxo-chromen-2-yl)phenoxy]-2-hydroxy-propyl]pyrrolidine-3-carboxylic acid]",3.19,9.98
"CCOC(=O)C(=O)NCCOc1cc(C(F)(F)F)ccc1-c1cc(=O)c2cccc(Cl)c2o1 [Example 101, ethyl 2-[2-[2-(8-chloro-4-oxo-chromen-2-yl)-5-(trifluoromethyl)phenoxy]ethylamino]-2-oxo-acetate]",1.08,1.41
"O=C(O)[C@H]1CCN(CCOc2cc(Br)ccc2-c2cc(=O)c3c(C(F)(F)F)ccc(Cl)c3o2)C1 [Example 042, (3S)-1-[2-[5-bromo-2-[8-chloro-4-oxo-5-(trifluoromethyl)chromen-2-yl]phenoxy]ethyl]pyrrolidine-3-carboxylic acid]",0.05,7.3
"O=C(O)C1CN(CCOc2cc(Br)ccc2-c2cc(=O)c3cccc(Cl)c3o2)C1 [Example 019, 1-[2-[5-bromo-2-(8-chloro-4-oxo-chromen-2-yl)phenoxy]ethyl]azetidine-3-carboxylic acid]",0.57,7.13
"O=C(O)[C@@H]1CCN(CCCOc2cc(C(F)(F)F)ccc2-c2cc(=O)c3cccc(Cl)c3o2)C1 [Example 013, (3R)-1-[3-[2-(8-chloro-4-oxo-chromen-2-yl)-5-(trifluoromethyl)phenoxy]propyl]pyrrolidine-3-carboxylic acid]",4.23,7.35
"CS(=O)(=O)C1CCN(CCCOc2cc(C(F)(F)F)ccc2-c2cc(=O)c3cccc(Cl)c3o2)C1 (stereo not drawn) [Example 088, 8-chloro-2-[2-[3-(3-methylsulfonylpyrrolidin-1-yl)propoxy]-4-(trifluoromethyl)phenyl]chromen-4-one]",0.27,7.8
CC(=O)NCCCOc1cc(C(F)(F)F)ccc1-c1cc(=O)c2cccc(Cl)c2o1 [Example 098],4.34,6.34
"COc1cc(-c2cc(=O)c3cccc(Cl)c3o2)c(OCCCN2CC[C@H](C(=O)O)C2)cc1Br [Example 017, (3S)-1-[3-[5-bromo-2-(8-chloro-4-oxo-chromen-2-yl)-4-methoxy-phenoxy]propyl]pyrrolidine-3-carboxylic acid]",0.34,3.42
"CS(=O)(=O)NC(=O)C1CCCN1CCOc1cc(C(F)(F)F)ccc1-c1cc(=O)c2cccc(Cl)c2o1 (stereo not drawn) [Example 073, 1-[2-[2-(8-chloro-4-oxo-chromen-2-yl)-5-(trifluoromethyl)phenoxy]ethyl]-N-methylsulfonyl-pyrrolidine-2-carboxamide]",0.14,7.47
"CS(=O)(=O)NC(=O)[C@H]1CCN(CCCOc2cc(C(F)(F)F)ccc2-c2cc(=O)c3cccc(Cl)c3o2)C1 [Example 066, (3S)-1-[3-[2-(8-chloro-4-oxo-chromen-2-yl)-5-(trifluoromethyl)phenoxy]propyl]-N-methylsulfonyl-pyrrolidine-3-carboxamide]",2.79,9.03
O=c1cc(-c2ccc(Br)cc2OCCN2CCC(c3nnn[nH]3)CC2)oc2c(Cl)cccc12 [Example 087],5.24,7.84
"NS(=O)(=O)NCCCOc1cc(C(F)(F)F)ccc1-c1cc(=O)c2cccc(Cl)c2o1 [Example 160, 8-chloro-4-oxo-2-[2-[3-(sulfamoylamino)propoxy]-4-(trifluoromethyl)phenyl]chromene]",2.43,10
COc1cc(Cl)c2oc(-c3ccc(C(F)(F)F)cc3OCCCNC(=O)C(=O)O)cc(=O)c2c1 [Example 116],1.8,3.41
"O=C(O)C1CN(CCCOc2cc(C(F)(F)F)ccc2-c2cc(=O)c3cccc(Cl)c3o2)CCO1 (stereo not drawn) [Example 018, 4-[3-[2-(8-chloro-4-oxo-chromen-2-yl)-5-(trifluoromethyl)phenoxy]propyl]morpholine-2-carboxylic acid]",0.41,5.13
"O=C(O)C1CCCN1CCOc1cc(Br)ccc1-c1cc(=O)c2cccc(Cl)c2o1 (stereo not drawn) [Example 020, 1-[2-[5-bromo-2-(8-chloro-4-oxo-chromen-2-yl)phenoxy]ethyl]pyrrolidine-2-carboxylic acid]",0.87,8.36
O=C(O)C1CC(N2CCC(Oc3cc(Br)ccc3-c3cc(=O)c4cccc(Cl)c4o3)CC2)C1 (stereo not drawn) [Example 131],5.86,5.05
"CCOc1ccc(-c2cc(=O)c3cccc(Cl)c3o2)c(OCCCN2CC[C@H](C(=O)O)C2)c1 [Example 015, (3S)-1-[3-[2-(8-chloro-4-oxo-chromen-2-yl)-5-ethoxy-phenoxy]propyl]pyrrolidine-3-carboxylic acid]",7.85,9.75
